# Test results taken from EP0144996A2, “Substituted spiro pyridine derivatives, pharmaceutical compositions containing them and processes for the preparation of such compounds and compositions” (SCHERING CORPORATION, priority 1983, dated 1985).
# Assays:
# [1] = tested on: anaphylactic bronchospasm; experiment: Inhibition of anaphylactic bronchospasm in sensitized guinea pigs with antigen-induced bronchoconstriction; type: in vivo; settings: oral dose of 5 mg/kg
# Procedure: The anti-allergy method of this invention is identified by tests which measure a compound's inhibition of anaphylactic bronchospasm in sensitized guinea pigs having antigen-induced bronchoconstriction. […] The compounds are effective non-adrenergic, non-anticholinergic antianaphylactic agents. When administered orally they are active at doses from about 0.1 to 50 mg/kg of body weight; when administered parenterally, e.g., intravenously, the compounds are active at dosages of from about 0.01 to 5 mg/kg body weight; when administered by inhalation (aerosol or nebulizer) the compounds are active at dosages of about 0.1 to 5 mg per puff, and one to four puffs may be taken every 4 hours.
# [2] = tested on: allergen-induced histamine release; experiment: Allergen-induced histamine release from sensitized guinea pig tissue; type: cell-based
# [3] = tested on: allergen-induced histamine release; experiment: Allergen-induced histamine release from sensitized human tissue; type: cell-based
compound,measurement,setting,value
"O=C1c2cccnc2N(c2ccccc2)C(=O)C12CCCCO2 (stereo not drawn) [1-phenyl-3',4',5',6'-tetrahydro-spiro[1,8-naphthyridine-3,2'-(2H)pyran]-2,4-dione]",inhibition of anaphylactic bronchospasms,[1],inhibit anaphylactic bronchospasms
same,inhibition of allergen-induced histamine release,[2],inhibit allergen-induced histamine release
same,inhibition of allergen-induced histamine release,[3],inhibit allergen-induced histamine release
